Measured values reported in ChEMBL document CHEMBL1201862, “PubChem BioAssay data set” (2004).
Active and inactive are the calls of the source.

How the values were obtained:
[1] = biological target: T1, Replicative DNA helicase DnaB (Mycobacterium tuberculosis, UniProt P9WMR3); experiment: DnaB intein splicing inhibitors, dose response, biochemical, cell-free fluorescence (AID 449749); format: functional
T1 sequence (P9WMR3 whole entry): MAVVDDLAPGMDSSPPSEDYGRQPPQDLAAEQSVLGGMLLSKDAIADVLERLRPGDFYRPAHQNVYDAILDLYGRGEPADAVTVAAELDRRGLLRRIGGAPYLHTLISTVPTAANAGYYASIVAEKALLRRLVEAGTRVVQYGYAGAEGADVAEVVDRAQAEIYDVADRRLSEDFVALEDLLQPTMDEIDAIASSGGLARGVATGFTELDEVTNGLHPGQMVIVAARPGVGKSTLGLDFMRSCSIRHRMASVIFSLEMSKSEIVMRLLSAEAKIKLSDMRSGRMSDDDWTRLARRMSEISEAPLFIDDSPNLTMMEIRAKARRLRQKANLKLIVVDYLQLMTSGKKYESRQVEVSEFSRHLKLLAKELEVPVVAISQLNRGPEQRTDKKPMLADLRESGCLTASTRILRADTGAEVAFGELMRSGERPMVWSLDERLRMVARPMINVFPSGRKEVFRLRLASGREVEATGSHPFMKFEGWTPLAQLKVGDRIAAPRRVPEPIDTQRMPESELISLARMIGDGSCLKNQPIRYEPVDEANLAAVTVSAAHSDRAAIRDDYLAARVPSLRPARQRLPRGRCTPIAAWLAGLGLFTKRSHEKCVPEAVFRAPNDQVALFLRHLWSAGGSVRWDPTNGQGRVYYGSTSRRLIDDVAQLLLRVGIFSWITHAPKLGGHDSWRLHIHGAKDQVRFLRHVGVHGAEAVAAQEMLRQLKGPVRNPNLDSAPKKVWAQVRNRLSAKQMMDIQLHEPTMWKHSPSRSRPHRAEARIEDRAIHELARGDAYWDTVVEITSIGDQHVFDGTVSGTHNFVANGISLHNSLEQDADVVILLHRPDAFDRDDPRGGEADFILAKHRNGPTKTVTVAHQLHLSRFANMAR

Protein RecA = biological target: T2, Protein RecA (Mycobacterium tuberculosis, UniProt P9WHJ3); experiment: Fluorescence Cell-Free Homogeneous Dose Retest to Identify Inhibitors of RecA-Intein Splicing Activity. [Related pubchem assays (depositor defined):AID2097, AID2223, AID489010, AID492950]; format: functional
T2 sequence (P9WHJ3 whole entry): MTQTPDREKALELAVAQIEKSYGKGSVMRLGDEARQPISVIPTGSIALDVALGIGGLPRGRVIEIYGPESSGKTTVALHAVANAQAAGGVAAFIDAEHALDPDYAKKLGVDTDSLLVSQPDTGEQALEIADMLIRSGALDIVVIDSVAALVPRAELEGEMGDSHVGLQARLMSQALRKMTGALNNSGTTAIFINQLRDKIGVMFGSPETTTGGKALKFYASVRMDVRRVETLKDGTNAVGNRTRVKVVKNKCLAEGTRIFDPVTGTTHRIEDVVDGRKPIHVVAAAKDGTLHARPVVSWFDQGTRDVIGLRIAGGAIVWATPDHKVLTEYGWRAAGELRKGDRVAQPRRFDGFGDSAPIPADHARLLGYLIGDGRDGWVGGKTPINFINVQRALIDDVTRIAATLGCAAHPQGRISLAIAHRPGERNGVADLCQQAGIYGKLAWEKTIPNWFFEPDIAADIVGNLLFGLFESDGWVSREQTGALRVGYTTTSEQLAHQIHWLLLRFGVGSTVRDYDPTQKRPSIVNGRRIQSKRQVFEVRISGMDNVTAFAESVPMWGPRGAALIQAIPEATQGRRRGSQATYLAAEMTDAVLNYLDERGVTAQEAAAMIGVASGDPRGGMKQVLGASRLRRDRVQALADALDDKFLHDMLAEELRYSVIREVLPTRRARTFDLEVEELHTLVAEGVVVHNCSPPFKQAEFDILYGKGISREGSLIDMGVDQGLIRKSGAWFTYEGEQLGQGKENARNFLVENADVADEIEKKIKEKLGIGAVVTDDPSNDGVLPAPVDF

[2] = Luminescence Cell-Based Dose Confirmation HTS to Identify Inhibitors of Platelet Dense Granule Release. [Related pubchem assays: 1663 (Primary HTS), 1678 (Summary of Project)]; format: functional
[3] = biological target: Luciferin 4-monooxygenase (Photinus pyralis, UniProt P08659); experiment: inhibition of purified Photinus pyralis luciferase – biochemical, luminescence, dose response (AID 1891)
[4] = biological target: T3, Heat shock factor protein 1 (Mus musculus, UniProt P38532); experiment: decrease of HSF1-responsive luciferase luminescence – cell-based, NIH3T3, dose retest, confirmation (AID 2382); format: functional;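 note: NIH3T3 fibroblasts with HSF1-driven luciferase reporter stressed by proteasome inhibitor MG132; luminescence from HSF1-driven luciferase expression after 8 hours of MG132 stress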
T3 sequence (P38532 whole entry): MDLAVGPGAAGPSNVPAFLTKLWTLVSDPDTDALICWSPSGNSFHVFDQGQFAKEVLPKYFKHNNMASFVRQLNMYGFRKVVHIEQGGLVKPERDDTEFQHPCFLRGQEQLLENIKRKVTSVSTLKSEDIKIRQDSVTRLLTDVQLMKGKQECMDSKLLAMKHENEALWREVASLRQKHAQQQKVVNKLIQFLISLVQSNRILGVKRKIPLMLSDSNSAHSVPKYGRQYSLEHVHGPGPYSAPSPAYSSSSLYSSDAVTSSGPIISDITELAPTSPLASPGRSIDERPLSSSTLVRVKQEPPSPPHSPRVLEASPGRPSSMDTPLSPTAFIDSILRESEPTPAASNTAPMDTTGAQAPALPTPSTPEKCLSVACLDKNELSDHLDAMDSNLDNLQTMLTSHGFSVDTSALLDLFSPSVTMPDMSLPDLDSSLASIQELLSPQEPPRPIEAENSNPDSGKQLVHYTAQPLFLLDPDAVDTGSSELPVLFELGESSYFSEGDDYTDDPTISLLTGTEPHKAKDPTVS

[5] = non-specific 3'UTR reporter inhibition in Clone20-Shn3RL – cell-based, Renilla luciferase, cherry-picked, counter-screen for Shn3 inhibitor project, dose response (AID 624133); format: functional
[6] = reduction of Shn3 3'UTR-driven luciferase in osteoblasts – cell-based, Clone20 osteoblasts, firefly luciferase, cherry-picked, dose response (AID 624132); format: functional;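 note: firefly luciferase luminescence from reporter carrying the Shn3 3'UTR in osteoblasts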
[7] = viability of HCT116 lacking mutant beta-catenin – cell-based, human colon tumor, dose response (AID 1045); format: functional;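 note: HCT116 colon tumor cells with beta catenin knocked out; cells exposed to compound for 60 hours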
[8] = viability of PTEN-deleted HCT116 cells – cell-based, HCT116 PTEN knockout, dose response (AID 1047); format: functional;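 note: HCT116 colon tumor cells with PTEN knocked out; cells exposed to compound for 60 hours before readout; potency for loss of cell viability measured by luminescence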

Sequence of Luciferin 4-monooxygenase (P08659 whole entry): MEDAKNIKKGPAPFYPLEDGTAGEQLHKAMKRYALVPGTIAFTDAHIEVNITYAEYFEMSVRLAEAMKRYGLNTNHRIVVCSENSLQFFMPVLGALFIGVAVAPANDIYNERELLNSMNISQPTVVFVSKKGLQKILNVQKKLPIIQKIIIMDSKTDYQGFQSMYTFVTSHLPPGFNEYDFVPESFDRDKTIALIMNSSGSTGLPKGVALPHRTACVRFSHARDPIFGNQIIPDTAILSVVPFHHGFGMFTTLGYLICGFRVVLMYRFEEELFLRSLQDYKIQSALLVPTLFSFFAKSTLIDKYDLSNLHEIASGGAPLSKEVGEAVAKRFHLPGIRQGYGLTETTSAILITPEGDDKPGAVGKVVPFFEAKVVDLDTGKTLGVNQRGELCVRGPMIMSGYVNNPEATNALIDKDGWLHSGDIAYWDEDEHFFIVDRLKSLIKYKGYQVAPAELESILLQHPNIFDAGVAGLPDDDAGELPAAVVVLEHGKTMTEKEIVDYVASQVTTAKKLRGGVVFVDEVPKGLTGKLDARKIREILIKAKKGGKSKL

Row | SMILES | AC50 [1] | EC50 (Protein RecA) | EC50 [4] | further results
1 | CC(=O)N1C(=O)C2(C(C#N)=C(N)Oc3c2c(C)nn3-c2ccccc2)c2ccccc21 (stereo not given) | 4.34 µM (active) | 2.28 µM (active) |  | 
2 | O=C1CC(NC(=O)C(F)(F)F)=NN1c1ccccc1 | 6.86 µM (active) | 5.51 µM (active) |  | 
3 | CCOC(=O)Cc1ccc2sc(-c3ccccc3)nc2c1 |  |  |  | EC50 [2]: 2.68 µM (active); EC50 [3]: 1.54 µM (active)
4 | COc1cc(C=C(c2nc3ccccc3s2)c2nc3ccccc3s2)ccc1O | > 380 µM (inactive) | 5.08 µM (active) |  | 
5 | Cc1ccc(SCc2n[nH]c3c2C(c2ccco2)C(C#N)=C(N)O3)cc1 (stereo not given) | < 0.018 µM (active) | 6.19 µM (active) |  | 
6 | COc1ccc(CCN2CC(C(=O)NCCc3ccc(C(F)(F)F)cc3)CCC2=O)cc1 (stereo not given) |  |  |  | EC50 [2]: > 112 µM (not active); EC50 [3]: > 112 µM (not active)
7 | O=Cc1c(-c2ccc(Cl)cc2)oc2ccc(O)cc12 |  |  | 18 µM (active) | 
8 | Cc1ccc(OC(=O)c2ccc([N+](=O)[O-])cc2Cl)cn1 | 11.2 µM (active) | 4.92 µM (active) |  | 
9 | O=S(=O)(c1ccccc1)N1CN2CCN(C2)C1 |  |  | > 195 µM (not active) | 
10 | C[C@H]1COC(=O)[C@H](NC(=O)OCC2c3ccccc3-c3ccccc32)C/C=C\C[C@H](CC(=O)N(CCO)Cc2ccccc2)C(=O)N1 |  |  |  | AC50 [5]: 5.76 µM (active); AC50 [6]: 6.08 µM (active)
11 | CC(C)(C)c1ccc(C(=O)NC(=S)N2CCCC2)cc1 |  |  | > 195 µM (not active) | 
12 | CC1C/C(=N/Nc2nc3ccccc3[nH]2)CC(C)(C)C1 (stereo not given) |  |  | > 195 µM (not active) | 
13 | CC1=C(C)/C(=N/OC(=O)c2cccc([N+](=O)[O-])c2)C=CC1=O | > 380 µM (inactive) | 0.418 µM (active) |  | EC50 [7]: 9.24 µM (active); EC50 [8]: 9.44 µM (active)
14 | COc1cccc(/C=N/NC(=O)c2cnccn2)c1 |  |  | > 195 µM (not active) | 
